Experimental findings from a melting point compilation (Tetko et al.; mined from patent text by program, amines drawn as free bases though some values may be those of a salt) are described below.

Bounds are passed on as bounds.

`COc1ccc(C2CNC(=O)C2)cc1OC` (stereo not given): the melting point was determined as 120 °C.

`O=C(c1ccccc1)c1cc(Cl)cc(I)c1O` showed a melting point of 110 to 111 °C.

In turn, `CN(SN(CC#N)CC#N)C(=O)Oc1cccc2c1OC(C)(C)C2` registered a melting point of 94 to 95 °C.

On to `CN(C)C(=S)Oc1ccc2ncc([N+](=O)[O-])c(-c3ccccc3)c2c1`, for which the melting point was 205 to 208 °C.

Molecule `Cc1ccc2c(cc(CCC(=O)O)n2S(=O)(=O)c2ccccc2)n1` yielded a melting point of 88 to 92 °C.

Molecule `CC(=O)n1nc(C2CCN(CCc3c(C)nc4c(C)cccn4c3=O)CC2)c2ccc(F)cc21` returned a melting point of 210 °C.

On to `C=CCN(CC=C)Cc1nc(-c2ncn3c2[C@@H]2CCN2C(=O)c2c(Cl)cccc2-3)no1`, for which the melting point is 165 to 170 °C.

For the molecule `Cc1nnc2n1-c1ccc(Cl)cc1C(c1ccccc1)N2` (stereo not given), the melting point lay within 262 to 265 °C.

Molecule `CC(C)c1nn(-c2ccc(C(F)(F)F)cn2)cc1COc1cc(CCC(=O)O)n(C)n1` had a melting point of 141 to 142 °C.

For the molecule `CN1Cc2c(C(=O)OC(C)(C)C)ncn2-c2cccnc2C1=O`, the melting point fell in the range of 234 to 236 °C.

`Nc1ncc(S(=O)c2ccncc2)s1` (stereo not given) had a melting point of 193 to 195 °C.

Turning to `O=C(NS(=O)(=O)C=Cc1ccccc1)N1CCC(CCCc2ccc(O)cc2)CC1`, the melting point is 132 to 135 °C.

`CCOC(=O)Cc1csc(NC(=O)C(N)Cc2ccc(F)cc2)n1` (stereo not given): the melting point was 124 to 127 °C.

In turn, `OC[C@@H](O)CCOc1ccc(-c2nc3c4ccccc4c4ccccc4c3[nH]2)cc1` showed a melting point of 263 to 265 °C.

In turn, `O=C(O)c1ccc(NCc2cccc(Cl)c2)cn1` registered a melting point of 170 to 174 °C.

In turn, `O=[N+]([O-])c1ccc(S(=O)(=O)NCc2ccccc2C(F)(F)F)c([N+](=O)[O-])c1` showed a melting point of 157 to 158 °C.

`Cc1ccc2ccn(CC(C)O)c2c1` (racemic) gave a melting point of 65 to 69 °C.

The molecule `CCOC(=O)c1cn(CCF)c2nc(N3CCC(N(C)C(C)=O)C3)c(F)cc2c1=O` (stereo not given) showed a melting point of 227 to 229 °C.

`CNC(=O)[C@H]1CN(c2ccc3c(c2)sc(=O)n3C)C(=O)O1` returned a melting point of 264 to 267 °C.

Turning to `CCOc1ccc2c(c1)n(C1CCCCC1)c(=O)n2Cc1ccc(C(=O)NC(C)(C)CC)cc1OC`, the melting point was 164 °C.

For `COC(=O)/C=C/C=C(\c1ccc(OC)cc1)c1ccccc1OC`, the melting point lay in the range of 99.5 to 102 °C.

Molecule `CCC(=O)Nc1nc(N2CCC(c3c[nH]c4ccc(NC(C)=O)cc34)CC2)cs1` gave a melting point of 263 to 267 °C.

`O=C(NCCCCN1CCC(c2c[nH]c3ccccc23)CC1)c1ccc(-c2ccc(C(F)(F)F)cc2)cc1CO` displayed a melting point of 255 °C.

`Cc1cccc(-n2nc(C)cc2-c2ccnc(NCCc3ccccc3)c2)c1` came in with a melting point of 86 to 87 °C.

`CCOC(=O)C1CCCN(C(=O)C2CCC(Nc3nccc(-n4ccc5c(OCCCS(C)(=O)=O)cccc54)n3)CC2)C1` (stereo not given) gave a melting point of 175 to 177 °C.

`CCCCCc1cc2c(nc(O)n2CC2CCN(S(C)(=O)=O)CC2)c(N)n1` registered a melting point of 228 to 231 °C.

`COCc1c(S(C)(=O)=O)ccc(C(=O)O)c1Cl` gave a melting point of 137 to 141 °C.

As for `CCC(C(=O)c1ccc(OCc2ccccc2)cc1)c1ccc(OCc2ccccc2)cc1` (stereo not given), the melting point was 84 °C.

`CNc1ccccc1C(=O)NCCCn1cncn1`: the melting point lay within 131 to 133 °C.

`CCOC(=O)c1nn(-c2ccc(C=O)cc2)nc1-c1ccccc1` returned a melting point of 96 to 97 °C.

In turn, `CCC(OC(C)=O)c1ccc(C(OC(C)=O)C(C)(C)C)cc1` (stereo not given) displayed a melting point of 64 to 65 °C.

With `COc1nc(C)c(C)nc1NC(=O)N1CCN(c2cccc(Br)c2)CC1`, the melting point was 158 to 160 °C.

`C=CCc1c(O)cc(OC)c2c(C)cc(=O)oc12`: the melting point turned out to be 198 °C.

Consider `COCc1cc([N+](=O)[O-])ccc1OCc1ccccc1`, for which the melting point was 108 °C.

`CCOC(=O)CCc1oc(-n2cncn2)nc1-c1ccc(Cl)cc1` registered a melting point of 99 to 100 °C.

`CN1C(O)=C(C(=O)Nc2ccc(Br)cc2)c2ccsc2S1(=O)=O`: the melting point lay in the range of 197 to 199 °C.

In the case of `COc1ccc(OCCOS(N)(=O)=O)cc1`, the melting point lay within 84 to 87 °C.

`O=C1NC(=O)C(Cc2ccc(OCc3coc(-c4ccccc4)n3)cc2)S1` (stereo not given): the melting point was 188 to 189 °C.

In turn, `C=CCn1ccc(=O)[nH]c1=O` returned a melting point of 108 to 109 °C.

In the case of `CCCCCCCC(=O)Nc1ccc([N+](=O)[O-])cc1`, the melting point fell in the range of 80.9 to 81.6 °C.

For `O=C(O)c1cnn2c(C(F)(F)F)cc(-c3ccc(C(F)(F)F)c(Cl)c3)nc12`, the melting point was found to be 244 °C.

Molecule `COc1ccc(/C=N/N2C=COC=C2)cc1OC1CCCC1` gave a melting point of 108 to 109 °C.

Molecule `N#Cc1[nH]c(-c2ccc(Cl)cc2)c(Br)c1-c1ccc(Cl)cc1` returned a melting point of 98 to 100 °C.

Consider `O=Cc1ccc2c(c1)Sc1ccccc1C=C2`, for which the melting point lay within 114 to 116 °C.

`O=c1[nH]c2ncc(-c3ccc(O)nc3)nc2n1CC1CCCCC1` displayed a melting point of more than 400 °C.

Consider `COC(=O)NC(=N)c1ccc(-n2nc(C)n(-c3ccc(CCC(=O)OCC(C)C)cc3)c2=O)cc1`, for which the melting point lay in the range of 200 to 201 °C.

In turn, `[N-]=[N+]=NCC(=O)N1CC(c2ccccc2)c2ccccc21` (stereo not given) came in with a melting point of 72 to 73 °C.

`CSC(Nc1cc(Cl)cc(Cl)c1)=C(C#N)S(=O)(=O)c1ccc(Cl)cc1` registered a melting point of 128 to 131 °C.

`Cc1oc(-c2ccccc2)nc1CCOc1ccc(C[C@H](NC(=O)C=Cc2ccc(F)c(F)c2)C(=O)O)cc1` showed a melting point of 204 to 206 °C.

Consider `O=C(O)CCCCc1ccc2ccccc2c1OCc1ccccc1`, for which the melting point lay in the range of 70 to 77 °C.

`CCCCc1nn(-c2ccc([N+](=O)[O-])cc2C(F)(F)F)c(=O)n1Cc1ccc(-c2ccccc2S(N)(=O)=O)cc1` had a melting point of 218 to 220 °C.

Regarding `N=C(N)c1ccc(N2CCN(c3ccc(OCC(=O)O)cc3)CC2)cc1`, the melting point was more than 340 °C.

Molecule `Cc1cc(-c2ccc(C(F)(F)F)nc2)cc(-c2cccc(-c3cccc(S(=O)(=O)NC(C)(C)C)c3)n2)n1` had a melting point of 187 to 188 °C.

`CC#CCn1c(Cl)nc2c1c(=O)n(C)c(=O)n2C`: the melting point was 105 to 108 °C.

In turn, `COC(=O)c1cc(Cl)c2c(c1OC)CCCN2` returned a melting point of 105 to 108 °C.

`CCOC(=O)c1cn(Cc2cnsn2)c2nc(Cl)c(F)cc2c1=O` displayed a melting point of 175 to 177 °C.

Turning to `CCCn1c(=O)c2[nH]c(C3(N)CCCCC3)nc2n(CCC)c1=O`, the melting point fell in the range of 172 to 173 °C.

`NS(=O)(=O)c1cccnc1N1CCSCC1` had a melting point of 176 to 177 °C.

Molecule `CCC(Nc1cc(C)nc(Oc2c(C)cc(Cl)cc2C)c1C(=O)OC)C(C)O` (stereo not given) had a melting point of 133 to 135 °C.

The molecule `CCn1cc(C(=O)O)c(=O)c2c(C)c(F)c(N3CCNCC3)c(F)c21` had a melting point of 223 to 225 °C.

Molecule `Cc1ccccc1C(=O)NC(NC(=O)Nc1cccnc1)C(Cl)(Cl)Cl` (stereo not given) showed a melting point of 182 to 184 °C.

For the molecule `CC(=O)N1OCC(=O)N(CO)C1c1ccccc1` (stereo not given), the melting point fell in the range of 123 to 126 °C.

`O=C(Nc1nc(-c2ccco2)c(C(=O)c2ccccn2)s1)c1ccncc1`: the melting point lay within 218 to 227 °C.

For `CCNC1=NS(=O)(=O)c2cc(F)c(F)cc2N1`, the melting point was in the range of 246 to 252 °C.

Regarding `COC(=O)c1cc(CCN(C)CCCC(C#N)(c2ccc(OC)c(OC)c2)C(C)C)cc(C(=O)OC)c1` (stereo not given), the melting point lay in the range of 100 to 103 °C.

The molecule `CC(=O)Nc1ccc(F)c(F)c1F` had a melting point of 87 to 88 °C.

`CC12CCC3c4ccc(O)cc4CC(CCCCCO)C3C1C=CC2=O` (stereo not given) displayed a melting point of 194 to 196 °C.

As for `Cc1cn2c(n1)C(=O)CCC2`, the melting point lay in the range of 147 to 149 °C.

Consider `CC1(c2ccccc2)Cc2cc(O)c(Cl)c(Cl)c2C1=O` (stereo not given), for which the melting point is 194 to 196 °C.

As to `Cc1nc2c(N)nc3ccccc3c2n1CCCC1(C)OCCO1`, the melting point lay within 193 to 195 °C.

For the molecule `CCNC(=O)n1nc(Oc2c([N+](=O)[O-])cc([N+](=O)[O-])cc2C(F)(F)F)cc1C`, the melting point lay within 169 to 171 °C.

Take `Nc1nc(COCCO)nc2nccnc12`: the melting point fell in the range of 149 to 151 °C.

With `Cc1ccc(NC(=O)N(Cc2ccccc2)Cc2ccccc2)c(C)c1`, the melting point is 124 to 126 °C.

As for `O=C(O)COc1c(Br)cc(C(=O)c2c(Cc3ccccc3)sc3ccccc23)cc1Br`, the melting point was in the range of 162 to 163 °C.

Consider `COP(=O)(Cc1cc(C)c(C)cc1CP(=O)(OC)OC)OC`, for which the melting point is 66 to 69 °C.

`CC(C)(O)C#Cc1ccccc1`: the melting point was in the range of 52 to 53 °C.

Take `O=[N+]([O-])c1ccccc1Oc1ccccc1Cl`: the melting point lay in the range of 48 to 49 °C.

Molecule `COC(=O)CCc1cc(C(=O)c2cccc(C(=O)OC)n2)ccc1OCCCC/C=C/c1ccc(OC)cc1` came in with a melting point of 80 to 82 °C.

Regarding `O=[N+]([O-])c1cc(-c2csc(-c3cccnc3)n2)cc(O)c1O`, the melting point fell in the range of 279 to 281 °C.

With `CCOC(=O)c1cn(CC)c2nc3cc(F)c(F)cc3cc2c1=O`, the melting point is 270 °C.

As to `CCn1nc(C)c2nc(C)nc(N3CC3)c21`, the melting point was 66 to 69 °C.

`CCC(=O)c1cc(C#N)c(=O)[nH]c1C=CN(C)C` displayed a melting point of 278 to 280 °C.

The molecule `O=C(O)COc1ccc(C(=O)Nc2cccc(Cl)c2Cl)cc1` returned a melting point of 153 to 157 °C.

`Cc1nc2c(C(=O)O)c(C(=O)O)ccc2n1Cc1ccccc1`: the melting point is 224 to 226 °C.

`CCOCCOC(=O)Nc1c(C#N)cnn1-c1ccc(Cl)c(Cl)c1Cl` displayed a melting point of 122 to 124 °C.

For `COC(=O)c1cc2cnc(SC)nc2n(Cc2ccc(OC)c(Cl)c2)c1=O`, the melting point lay in the range of 191 to 193 °C.

`O=S(=O)(c1ccc(Cl)cc1)C(c1cc(F)ccc1F)c1cc(NCCOCCO)ncc1Cl` (stereo not given) yielded a melting point of 113 to 115 °C.

As to `Cn1cnc([N+](=O)[O-])c1CBr`, the melting point is 130 to 132 °C.

Turning to `Nc1cc(Cl)nc(C(=O)O)c1C=O`, the melting point is 146 to 148 °C.

For `COC(=O)c1nnc2n1-c1ccc(Cl)cc1C(c1ccccc1)=NC2`, the melting point was in the range of 216 to 217 °C.

The term melting point denotes the temperature of the solid-liquid transition.
